Assay results reported in US9629817B2 (priority 2005, dated 2017).
Read-outs that look alike come from different tables or passages of the source.

Tested on: Pigs
Settings: riluzole ip 8 mg/kg; for average number of episodes of sustained arrhythmias: VT or VF lasting more than 15 seconds
Protocol: Pigs of either sex and weighing between 20 and 35 kg were each anaesthetised with thiopentone sodium (10-15 mg/kg iv) and maintained under general anaesthesia with isoflurane (0.5-2% in oxygen). Artificial ventilation was maintained at a volume of 15 ml/kg and a rate of 12 breaths per minute. […] Subsequent to a mid-stemotomy and division of the pericardium, the left anterior coronary artery (LAD) was occluded mid-way along its length by permanent ligation.

[1] = first three hours post commencement of hypoxia
[2] = phase 2 (60-180 minutes post LAD occlusion)

Nc1nc2ccc(OC(F)(F)F)cc2s1 [riluzole, 2-amino-6-tritluoromethoxybenzothiazole]
animals which developed any non-sustained arrhythmias [1]: 50% | animals which developed any sustained arrhythmias [1]: 50% | number of spontaneous PVCs (single), riluzole vs control group (phase 1a (first 15 minutes of hypoxia following LAD occlusion)): no significant difference | average number of episodes of sustained arrhythmias (phase 1a): 0.17 episodes per animal | fall in number of episodes of non-sustained arrhythmias vs control group (phase 1a): 43% | fall in number of episodes of sustained arrhythmias vs control group (phase 1a): 58% | number of geminy beats (bigeminy, trigeminy and quadrigeminy) occurring spontaneously, riluzole vs control group (phase 1a): no significant | number of multiple PVCs occurring spontaneously, riluzole vs control group (phase 1a): no significant difference | number of spontaneous PVCs (single), riluzole vs control group (phase 1b (15-60 minutes post LAD occlusion)): no significant difference | average number of episodes of sustained arrhythmias (phase 1b): 0.33 episodes per animal | fall in number of episodes of non-sustained arrhythmias vs control group (phase 1b): 35% | fall in number of episodes of sustained arrhythmias vs control group (phase 1b): 86% | number of geminy beats (bigeminy, trigeminy and quadrigeminy) occurring spontaneously, riluzole vs control group (phase 1b): no significant | number of multiple PVCs occurring spontaneously, riluzole vs control group (phase 1b): no significant difference | average number of PVCs (single) [2]: 17 | drop in average number of PVCs (single) vs control group [2]: 91% | average number of episodes of sustained arrhythmias (phase 2): 0.33 episodes per animal | average number of geminy beats (phase 2): 0 | average number of multiple PVCs (phase 2): 7 | drop in average number of geminy beats vs control group (phase 2): 100% | drop in average number of multiple PVCs vs control group (phase 2): 93% | fall in number of episodes of non-sustained arrhythmias vs control group (phase 2): 92% | fall in number of episodes of sustained arrhythmias vs control group (phase 2): 90%
